Conditions: Liquid, Transpiration method

NC=O [formamide]
Conditions | vapor or sublimation pressure [kPa]
303.4 K | 0.0143
308.2 K | 0.0201
313.2 K | 0.0305
318.2 K | 0.0455
323.2 K | 0.0636
328.2 K | 0.0915
333.2 K | 0.1243
338.2 K | 0.1674
343.2 K | 0.2297
348.2 K | 0.3121
353.3 K | 0.4543
358.2 K | 0.5468
363.2 K | 0.7803
368.1 K | 0.9855
373.2 K | 1.271
376 K | 1.476

Source: the NIST ThermoML archive (doi:10.1021/je200683f)
